Data published in patent US11136613B2, “Antibacterial polypeptide libraries and methods for screening the same” (priority 2015, dated 2021).

What was measured:
Type in all cases: cell-based
[1] = tested on: wild type E. coli strain W3110; conditions: for cell lysis measured by decrease in culture optical density after IPTG induction: surface displayed peptide, E. coli W3110, IPTG added
E. coli strain WD101 = conditions: surface displayed peptide, 2× tether, 0.1 mM IPTG
E. coli = assay: Co-culture of 2× tether+cecropin P1 expressing E. coli and empty vector E. coli, CFU plating and plasmid qPCR; conditions: 3 hours
A. baumannii = assay: Surface expression of 2× tether+cecropin P1 or HA in A. baumannii; conditions: 2× tether surface expression
Source text: FIG. 3: Surface expression of 2× tether+cecropin P1 or HA in A. baumannii. Addition of IPTG leads to rapid lysis of cecropin P1 containing A. baumannii.
The platform uses a plasmid with a broad host range origin of replication offering flexibility to identify antimicrobial peptides in many gram-negative bacteria. For example, A. baumannii is a gram-negative, hospital-associated pathogen that quickly acquires antibiotic resistance. […] The selective marker on this plasmid can be changed to allow its use in bacteria with different antibiotic resistant profiles.

Row | Substance | cell lysis measured by decrease in culture optical density after IPTG induction [1] | efficiency of cell lysis depending on tether ([1]; two (2×) tandem low-complexity-region protein tethers, versus 0 and 1× tether, 0.1 mM IPTG) | cell lysis in resistant strain WD101 compared with parental strain W3110 (E. coli strain WD101) | difference in recoverable colony forming units between peptide expressing and control bacteria (E. coli; co-culture in equal ratio, 0.1 mM IPTG) | decrease of ratio of peptide encoding plasmid to empty vector (qPCR) (E. coli; co-culture, 0.1 mM IPTG induction) [fold] | lysis of A. baumannii after addition of IPTG (A. baumannii)
1 | cecropin P1 (SWLSKTAKKLENSAKKRISEGIAIAIQGGPR; Cecropin-P1; UniProt P14661 14-44, looked up) [known antimicrobial peptide that lyses many gram-negative bacteria through disruption of the outer membrane; positive control] | begin to lyse | most efficient lysis | less cell lysis | 2-3 log | ~50 | rapid lysis
2 | Dermaseptin | same impact on cell growth | – | – | – | – | –
